Assay results published in US10174032B2, “Heterocyclic compound classes for signaling modulation” (SignalRx Pharmaceuticals, Inc., priority 2014, dated 2019).

Assays:
Type in all cases: biochemical
PI3K-alpha = PI3K-alpha (Homo sapiens, UniProt P42336); assay: Kinase inhibition assay, P-33 labelled ATP phosphate transfer, PI3K-alpha; details: read-out: PI3K-alpha (% Inh at 300 nM)
Method: (§1) The assays determined the amount of radioactive phosphate transferred from P-33 labelled ATP to the substrate by the enzyme in the presence of various concentrations of the inhibitor test compounds. […] After this time period the cells were serum starved for 5 hours followed by application of the test compound. Test compound was added as a DMSO (dimethyl sulfoxide) solution such that the final DMSO concentration in the cell media was less than or equal to 0.2% by volume. After 30 minutes of exposure the growth factor stimulant, human IGF-1 (Pepro Tech, Inc., Rocky Hill, N.J., Cat.#100-11), was added in each well. […] A SpectraMax Plus spectrophotometric plate reader (Molecular Devices, Sunnydale, Calif.) was used to measure the optical density signal for pAKT at 450 nm (OD450 nm). The pAKT OD450 nm readings were normalized by total protein amount in the cell lysates determined by standard methods. Concentrations of test compounds required to inhibit IGF stimulated pAKT levels to 50% of maximum levels in PC3 cells (termed DM50 for decreased maximum 50%) were calculated by inputting the dose responses in the software package GraphPad Prism4 (GraphPad Software, Inc., San Diego, Calif.).

PI3K-beta = PI3K-beta (Homo sapiens, UniProt P42338); assay: Kinase inhibition assay, P-33 labelled ATP phosphate transfer, PI3K-beta; details: for inhibition at 10 µM: read-out: PI3K-beta(% Inh at 10 μM); for inhibition at 0.3 µM: read-out: PI3K-beta(% Inh at 300 nM)
Chain of PI3K-beta (P42338 whole entry, species assumed): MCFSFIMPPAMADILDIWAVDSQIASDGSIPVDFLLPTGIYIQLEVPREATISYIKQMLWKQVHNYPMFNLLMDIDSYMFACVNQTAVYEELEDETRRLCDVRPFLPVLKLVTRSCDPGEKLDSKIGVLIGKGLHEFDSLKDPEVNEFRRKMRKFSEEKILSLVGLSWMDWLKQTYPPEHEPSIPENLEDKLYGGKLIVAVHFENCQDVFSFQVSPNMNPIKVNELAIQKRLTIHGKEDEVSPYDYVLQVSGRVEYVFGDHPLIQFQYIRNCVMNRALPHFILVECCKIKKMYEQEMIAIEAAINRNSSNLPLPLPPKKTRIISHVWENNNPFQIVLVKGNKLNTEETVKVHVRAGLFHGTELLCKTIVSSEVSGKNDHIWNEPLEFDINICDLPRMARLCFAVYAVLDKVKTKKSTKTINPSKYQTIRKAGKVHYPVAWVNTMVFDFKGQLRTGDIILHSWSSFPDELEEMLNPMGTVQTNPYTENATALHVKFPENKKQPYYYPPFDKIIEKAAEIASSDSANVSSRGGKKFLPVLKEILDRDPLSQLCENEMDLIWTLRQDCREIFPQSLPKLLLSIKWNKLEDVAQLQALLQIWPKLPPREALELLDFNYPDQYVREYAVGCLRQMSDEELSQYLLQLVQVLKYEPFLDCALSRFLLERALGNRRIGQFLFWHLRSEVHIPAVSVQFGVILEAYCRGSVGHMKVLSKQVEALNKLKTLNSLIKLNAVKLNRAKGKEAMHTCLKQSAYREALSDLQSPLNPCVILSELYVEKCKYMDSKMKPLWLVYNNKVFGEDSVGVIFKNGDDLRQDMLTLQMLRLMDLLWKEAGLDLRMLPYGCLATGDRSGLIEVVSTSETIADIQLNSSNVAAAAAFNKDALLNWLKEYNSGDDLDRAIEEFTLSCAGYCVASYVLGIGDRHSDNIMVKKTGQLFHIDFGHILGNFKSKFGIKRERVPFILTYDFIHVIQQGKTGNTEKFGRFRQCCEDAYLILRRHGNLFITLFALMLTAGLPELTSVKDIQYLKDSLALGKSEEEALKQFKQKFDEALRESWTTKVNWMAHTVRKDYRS
Chain of PI3K-beta (P27986 whole entry partner, species assumed): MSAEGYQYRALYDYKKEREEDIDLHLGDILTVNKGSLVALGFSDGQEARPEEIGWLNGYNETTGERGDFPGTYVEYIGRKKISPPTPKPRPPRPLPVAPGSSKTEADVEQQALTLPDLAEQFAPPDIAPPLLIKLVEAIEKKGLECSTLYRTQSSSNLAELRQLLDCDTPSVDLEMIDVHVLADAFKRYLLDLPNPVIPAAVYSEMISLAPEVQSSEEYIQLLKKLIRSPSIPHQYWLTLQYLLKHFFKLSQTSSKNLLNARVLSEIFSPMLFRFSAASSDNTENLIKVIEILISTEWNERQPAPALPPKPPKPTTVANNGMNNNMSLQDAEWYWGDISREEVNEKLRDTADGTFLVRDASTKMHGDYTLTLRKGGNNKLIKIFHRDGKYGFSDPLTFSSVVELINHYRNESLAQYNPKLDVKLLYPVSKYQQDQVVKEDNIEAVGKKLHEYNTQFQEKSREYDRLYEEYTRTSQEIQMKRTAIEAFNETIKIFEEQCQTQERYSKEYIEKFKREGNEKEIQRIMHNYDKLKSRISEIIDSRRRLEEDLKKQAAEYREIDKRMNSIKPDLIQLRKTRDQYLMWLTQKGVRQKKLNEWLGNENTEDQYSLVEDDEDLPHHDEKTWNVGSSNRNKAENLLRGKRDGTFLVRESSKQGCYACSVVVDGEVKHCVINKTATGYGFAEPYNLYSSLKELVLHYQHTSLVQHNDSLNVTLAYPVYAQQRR
Method: as §1

PI3K-delta = PI3K-delta (Homo sapiens, UniProt O00329); assay: Kinase inhibition assay, P-33 labelled ATP phosphate transfer, PI3K-delta; details: for inhibition at 10 µM: read-out: PI3K-delta(% Inh at 10 μM); for inhibition at 0.3 µM: read-out: PI3K-delta(% Inh at 300 nM)
Chain of PI3K-delta (O00329 whole entry, species assumed): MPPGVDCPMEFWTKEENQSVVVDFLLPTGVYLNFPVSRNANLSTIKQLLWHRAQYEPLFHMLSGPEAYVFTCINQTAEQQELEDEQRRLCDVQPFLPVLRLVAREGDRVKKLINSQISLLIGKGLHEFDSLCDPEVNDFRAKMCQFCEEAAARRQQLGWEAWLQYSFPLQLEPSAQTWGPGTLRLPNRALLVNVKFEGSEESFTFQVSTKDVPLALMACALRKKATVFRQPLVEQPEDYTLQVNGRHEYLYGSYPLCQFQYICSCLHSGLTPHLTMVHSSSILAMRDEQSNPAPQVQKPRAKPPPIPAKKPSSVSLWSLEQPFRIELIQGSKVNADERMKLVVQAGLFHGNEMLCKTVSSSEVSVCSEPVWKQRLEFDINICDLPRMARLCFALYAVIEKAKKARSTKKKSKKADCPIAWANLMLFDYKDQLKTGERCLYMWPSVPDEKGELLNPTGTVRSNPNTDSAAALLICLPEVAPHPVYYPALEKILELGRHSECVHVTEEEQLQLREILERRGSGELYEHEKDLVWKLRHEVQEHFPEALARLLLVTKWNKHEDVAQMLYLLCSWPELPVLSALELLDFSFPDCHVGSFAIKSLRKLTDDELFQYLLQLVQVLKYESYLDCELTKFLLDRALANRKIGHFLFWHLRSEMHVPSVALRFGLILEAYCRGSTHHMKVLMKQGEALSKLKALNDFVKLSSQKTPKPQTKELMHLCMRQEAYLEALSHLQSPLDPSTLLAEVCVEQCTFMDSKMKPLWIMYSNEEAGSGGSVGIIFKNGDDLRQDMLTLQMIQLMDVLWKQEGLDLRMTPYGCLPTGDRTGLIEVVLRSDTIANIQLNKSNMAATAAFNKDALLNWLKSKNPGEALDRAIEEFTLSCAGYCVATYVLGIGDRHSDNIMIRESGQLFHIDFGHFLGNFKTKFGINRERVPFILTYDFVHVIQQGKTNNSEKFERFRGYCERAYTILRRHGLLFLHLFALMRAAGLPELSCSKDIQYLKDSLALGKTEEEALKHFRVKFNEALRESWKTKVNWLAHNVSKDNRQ
Chain of PI3K-delta (P27986 whole entry partner, species assumed): as the sequence (P27986 whole entry partner, species assumed) above
Method: as §1

PI3K-gamma = PI3K-gamma (Homo sapiens, UniProt P48736); assay: Kinase inhibition assay, P-33 labelled ATP phosphate transfer, PI3K-gamma; details: for inhibition at 10 µM: read-out: PI3K-gamma(% Inh at 10 μM); for inhibition at 0.3 µM: read-out: PI3K-gamma(% Inh at 300 nM)
Method: as §1

mTOR = mTOR (Homo sapiens, UniProt P42345); assay: Kinase inhibition assay, P-33 labelled ATP phosphate transfer, mTOR; details: for inhibition at 10 µM: read-out: mTOR(% Inh at 10 μM); for inhibition at 0.3 µM: read-out: mTOR(% Inh at 300 nM)
Method: as §1

PLK-1 = PLK-1 (Homo sapiens, UniProt P53350); assay: Kinase inhibition assay, P-33 labelled ATP phosphate transfer, PLK-1; details: for inhibition at 10 µM: read-out: PLK-1(% Inh at 10 μM); for inhibition at 0.3 µM: read-out: PLK-1(% Inh at 300 nM)
Chain of PLK-1 (P53350 whole entry, species assumed): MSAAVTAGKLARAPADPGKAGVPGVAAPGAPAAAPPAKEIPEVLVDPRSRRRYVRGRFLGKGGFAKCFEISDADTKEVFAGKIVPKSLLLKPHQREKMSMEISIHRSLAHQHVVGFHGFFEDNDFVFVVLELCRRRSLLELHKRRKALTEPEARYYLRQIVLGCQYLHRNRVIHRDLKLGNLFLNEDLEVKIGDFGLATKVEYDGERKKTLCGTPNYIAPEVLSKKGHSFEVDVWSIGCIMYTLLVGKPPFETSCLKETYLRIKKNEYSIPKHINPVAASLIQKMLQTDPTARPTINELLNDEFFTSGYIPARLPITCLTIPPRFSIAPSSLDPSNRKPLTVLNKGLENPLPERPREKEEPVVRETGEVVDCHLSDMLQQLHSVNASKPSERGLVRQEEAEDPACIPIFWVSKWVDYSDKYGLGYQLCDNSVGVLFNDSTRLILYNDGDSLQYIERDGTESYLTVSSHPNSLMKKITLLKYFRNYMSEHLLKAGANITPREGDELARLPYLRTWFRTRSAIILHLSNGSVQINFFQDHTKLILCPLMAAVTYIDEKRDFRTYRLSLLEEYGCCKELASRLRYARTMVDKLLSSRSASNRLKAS
Method: as §1

PIM-1 = PIM-1 (Homo sapiens, UniProt P11309); assay: Kinase inhibition assay, P-33 labelled ATP phosphate transfer, PIM-1; details: for inhibition at 10 µM: read-out: PIM-1(% Inh at 10 μM); for inhibition at 0.3 µM: read-out: PIM-1(% Inh at 300 nM)
Chain of PIM-1 (P11309 whole entry, species assumed): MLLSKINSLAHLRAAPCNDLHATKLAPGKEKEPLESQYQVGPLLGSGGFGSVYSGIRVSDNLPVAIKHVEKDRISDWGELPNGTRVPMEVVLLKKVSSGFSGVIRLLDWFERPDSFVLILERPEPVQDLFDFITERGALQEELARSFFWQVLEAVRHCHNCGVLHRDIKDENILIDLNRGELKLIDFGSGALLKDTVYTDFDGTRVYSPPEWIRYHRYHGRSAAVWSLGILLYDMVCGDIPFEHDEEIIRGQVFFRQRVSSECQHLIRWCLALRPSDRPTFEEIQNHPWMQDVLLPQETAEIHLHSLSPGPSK
Method: as §1

DNA-PK = DNA-PK (Homo sapiens, UniProt P78527); assay: Kinase inhibition assay, P-33 labelled ATP phosphate transfer, DNA-PK; details: for inhibition at 0.3 µM: read-out: DNA-PK(% Inh at 300 nM)
Method: as §1

Chain of PI3K-alpha (P42336 whole entry, species assumed): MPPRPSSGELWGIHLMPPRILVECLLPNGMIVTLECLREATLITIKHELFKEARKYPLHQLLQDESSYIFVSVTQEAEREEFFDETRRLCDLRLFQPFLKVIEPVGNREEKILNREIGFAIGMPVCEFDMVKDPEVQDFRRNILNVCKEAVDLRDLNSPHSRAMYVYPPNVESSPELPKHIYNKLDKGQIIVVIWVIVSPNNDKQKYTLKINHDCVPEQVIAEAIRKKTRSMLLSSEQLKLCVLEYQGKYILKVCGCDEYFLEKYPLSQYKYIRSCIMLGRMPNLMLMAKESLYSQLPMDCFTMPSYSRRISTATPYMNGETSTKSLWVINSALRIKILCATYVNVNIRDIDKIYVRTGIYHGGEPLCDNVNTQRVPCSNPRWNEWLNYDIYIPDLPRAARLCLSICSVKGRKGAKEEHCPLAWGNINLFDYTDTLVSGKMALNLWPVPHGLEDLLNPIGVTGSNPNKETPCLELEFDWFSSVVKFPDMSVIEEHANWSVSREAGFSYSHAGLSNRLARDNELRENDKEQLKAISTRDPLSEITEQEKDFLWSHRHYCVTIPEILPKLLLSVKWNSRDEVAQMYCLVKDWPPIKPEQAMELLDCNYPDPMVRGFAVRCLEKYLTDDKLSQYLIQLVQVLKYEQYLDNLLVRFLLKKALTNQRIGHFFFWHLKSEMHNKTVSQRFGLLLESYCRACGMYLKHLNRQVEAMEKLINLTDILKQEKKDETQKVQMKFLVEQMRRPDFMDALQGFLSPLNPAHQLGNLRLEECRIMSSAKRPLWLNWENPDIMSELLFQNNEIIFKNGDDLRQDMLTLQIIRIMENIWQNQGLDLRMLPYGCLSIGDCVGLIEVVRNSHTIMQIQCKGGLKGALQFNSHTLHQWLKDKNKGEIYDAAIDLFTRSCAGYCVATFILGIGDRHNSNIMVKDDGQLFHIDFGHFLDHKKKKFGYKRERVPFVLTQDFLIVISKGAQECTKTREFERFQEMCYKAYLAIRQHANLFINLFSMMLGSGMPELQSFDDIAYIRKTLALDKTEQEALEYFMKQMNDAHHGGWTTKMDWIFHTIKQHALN
Chain of PI3K-alpha (P27986 whole entry partner, species assumed): as the sequence (P27986 whole entry partner, species assumed) above

Row | inhibition at 0.3 µM (PI3K-alpha) [%] | inhibition at 10 µM (PI3K-beta) [%] | inhibition at 10 µM (PI3K-delta) [%] | inhibition at 10 µM (PI3K-gamma) [%] | inhibition at 10 µM (mTOR) [%] | inhibition at 10 µM (PLK-1) [%] | inhibition at 10 µM (PIM-1) [%] | IC50 (DNA-PK) [µM] | inhibition at 0.3 µM (PI3K-beta) [%] | inhibition at 0.3 µM (PI3K-delta) [%] | inhibition at 0.3 µM (PI3K-gamma) [%] | inhibition at 0.3 µM (mTOR) [%] | inhibition at 0.3 µM (PLK-1) [%] | inhibition at 0.3 µM (PIM-1) [%] | inhibition at 0.3 µM (DNA-PK) [%] | Compound
1 | 2 | 9.2 | 18 | 4.8 | 11 | 3.4 | 3.2 | 24 |  |  |  |  |  |  |  | O=c1nc(N2CCOCC2)[nH]c2c1cnn2C1CCCCC1 [Compound 8, 1-cyclohexyl-6-morpholino-1H-pyrazolo[3,4-d]pyrimidin-4(7H)-one]
2 | 2.6 |  |  |  |  |  |  |  | 0 | 32 | 0 | 0 | 0 | 0 | 0 | Cc1nc2c(=O)nc(N3CCOCC3)[nH]c2n1-c1ccccc1 [Compound 11, 8-methyl-2-morpholino-9-phenyl-3H-purin-6(9H)-one]
3 | 19 |  |  |  |  |  |  |  |  | 27 |  | 0 | 0 |  |  | COc1ccc(-c2csc3c(=O)nc(N4CCOCC4)oc23)cc1 [Compound 14]
4 | 0 |  |  |  |  |  |  |  |  | 0 |  | 0 | 0 |  |  | O=c1nc(N2CCOCC2)oc2c(-c3cccnc3)csc12 [Compound 18]
5 | 15 |  |  |  |  |  |  |  |  | 0 |  | 3 | 0 |  |  | O=c1nc(N2CCOCC2)oc2c(-c3ccoc3)csc12 [Compound 19]
6 | 0 |  |  |  |  |  |  |  |  | 0 |  | 0 | 0 |  |  | COc1ccc(C#Cc2csc3c(=O)nc(N4CCOCC4)oc23)cc1 [Compound 20]
7 | 6.6 | 14 | 0 | 15 | 0 | 4.9 | 2.1 | 24 |  |  |  |  |  |  |  | O=c1nc(N2CCOCC2)[nH]c2c1cnn2Cc1ccccc1 [Compound 23]
8 | 6.6 | 4.7 | 10 | 35 | 0 | 2.6 | 9.4 | 24 |  |  |  |  |  |  |  | O=c1nc(N2CCOCC2)[nH]c2c1cnn2-c1ccccn1 [Compound 25]
9 | 9 | 14 | 26 | 0.6 | 0.5 | 3.3 | 1.5 | 24 |  |  |  |  |  |  |  | O=c1nc(N2CCOCC2)[nH]c2c1cnn2CCO [Compound 26]
10 | 6.9 |  | 0 |  |  |  |  |  |  |  |  |  |  |  |  | O=c1nc(N2CCOCC2)[nH]c2c1cnn2-c1ccc(Cl)cc1 [Compound 28]
11 | 7 |  |  |  |  |  |  |  | 0 | 0 | 0 | 0 | 0 | 0 | 0 | Cc1nc2c(=O)nc(N3CCOCC3)[nH]c2n1Cc1ccccc1 [Compound 29]
12 | 4.7 |  |  |  |  |  |  |  | 14 | 32 | 3 | 0 | 0 | 0 | 0 | Cc1nc2c(=O)nc(N3CCOCC3)[nH]c2n1-c1ccc(F)cc1 [Compound 30]
13 | 7.5 |  |  |  |  |  |  |  | 2.5 | 8.7 | 7.5 | 0 | 0 | 0 | 0 | Cc1nc2c(=O)nc(N3CCOCC3)[nH]c2n1-c1ccc2[nH]ccc2c1 [Compound 31]
14 | 0 |  |  |  |  |  |  |  | 0 | 15 | 1 | 0 | 0 | 0 | 0 | Cc1ccc(-n2c(C)nc3c(=O)nc(N4CCOCC4)[nH]c32)cc1 [Compound 32]
